In patent US12595253B2, “Benzamides of pyrazolylamino-pyrimidinyl derivatives, and compositions and methods thereof” (LYNK PHARMACEUTICALS CO. LTD., priority 2019, dated 2026) one finds IC50 and microsomal CLint data, which are given here for 14 molecules.

For one series, the target named is T1, JAK2V617F (Homo sapiens, UniProt O60674, V617F).
T1 construct: purchased Carna Biosciences
The series can be described thus: JAK2V617F microfluidic kinase assay (Caliper EZ Reader II, FAM labeled peptide substrate). Format: biochemical. The settings on record: JAK2V617F 2.5 nM, 1 mM ATP. In short, it runs like this:
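Activity measured in 50 mM HEPES, 0.01% Brij35, 10 mM MgCl2, 2 mM DTT by microfluidic separation of phosphorylated FAM peptide. Enzyme conditions set for 10% substrate conversion.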

Series [1] in a line: Liver microsomes study, Phase I stability (HLM). Format: in vitro ADME, human. The settings on record: pH 7.4; human liver microsomes 0.5 mg/mL, 1 μM test article; read-out: HLM Clint. In short, it runs like this: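 Rat or human liver microsomes were incubated with test article, and reactions started with an NADPH regenerating system. Samples at 0, 10, 30 and 90 minutes were quenched with cold acetonitrile and analyzed by LC/MS/MS. T½ and CLint came from the ln(% remaining) versus time slope, scaled by protein concentration.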
(In general: Liver microsomes are a subcellular fraction often used to study metabolism.)

The target in another series is T2, FLT3D835Y (Homo sapiens, UniProt P36888, D835Y).
T2 construct: purchased Carna Biosciences
T2 sequence (P36888 27-993 D835Y): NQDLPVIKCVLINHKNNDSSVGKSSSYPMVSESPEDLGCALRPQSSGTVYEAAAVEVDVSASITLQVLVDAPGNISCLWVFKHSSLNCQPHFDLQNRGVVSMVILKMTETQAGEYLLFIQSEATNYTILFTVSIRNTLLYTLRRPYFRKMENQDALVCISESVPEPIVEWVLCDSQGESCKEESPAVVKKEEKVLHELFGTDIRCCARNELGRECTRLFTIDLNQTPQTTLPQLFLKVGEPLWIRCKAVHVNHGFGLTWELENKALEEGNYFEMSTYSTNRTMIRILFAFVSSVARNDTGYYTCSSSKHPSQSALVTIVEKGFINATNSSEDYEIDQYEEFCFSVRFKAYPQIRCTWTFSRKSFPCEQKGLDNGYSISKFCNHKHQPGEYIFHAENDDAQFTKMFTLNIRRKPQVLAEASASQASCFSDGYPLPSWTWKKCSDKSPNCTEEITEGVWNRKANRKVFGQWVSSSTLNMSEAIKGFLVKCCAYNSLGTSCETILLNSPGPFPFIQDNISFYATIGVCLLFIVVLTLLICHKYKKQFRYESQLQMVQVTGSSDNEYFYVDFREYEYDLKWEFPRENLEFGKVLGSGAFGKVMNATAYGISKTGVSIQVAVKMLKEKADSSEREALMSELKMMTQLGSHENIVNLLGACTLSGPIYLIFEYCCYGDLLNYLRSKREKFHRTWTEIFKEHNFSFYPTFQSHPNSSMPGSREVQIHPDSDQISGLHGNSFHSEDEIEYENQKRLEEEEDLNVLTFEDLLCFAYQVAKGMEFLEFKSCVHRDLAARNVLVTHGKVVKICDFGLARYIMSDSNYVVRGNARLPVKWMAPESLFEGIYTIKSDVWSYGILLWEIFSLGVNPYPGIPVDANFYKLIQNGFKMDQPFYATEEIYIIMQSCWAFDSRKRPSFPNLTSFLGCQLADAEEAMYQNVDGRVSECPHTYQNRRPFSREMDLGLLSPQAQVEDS
The series can be described thus: FLT3D835Y microfluidic kinase assay. Format: biochemical. The protocol:
Compounds were tested against FLT3, FLT3ITD and FLT3D835Y.
Assay Formats: FLT3 activity was determined in the reaction buffer 50 mM HEPES, 10 mM MgCl2 and 2 mM DTT by a microfluidic assay. The phosphorylation of a FAM labeled peptide substrate was monitored in the Caliper EZ Reader II (Perkin Elmer). The assay condition for each batch of enzyme (Carna Biosciences) was optimized to obtain 10% conversion rate of peptide substrate.
The test compounds were dissolved in DMSO to a stock concentration of 10 mM. 3-fold serially diluted compounds with top concentration of 5 μM were pre-incubated with FLT3, FLT3ITD or FLT3D835Y for 10 min at ambient temperature. The final DMSO concentration of assay mixture was 1%. […] The reaction was stopped by adding 50 mM EITA. The reaction time for FLT3, FLT3ITD and FLT3D8335Y was 30 min, 40 min and 40 min, respectively.
And the well without compound but with equivalent DMSO was defined as no inhibition. The percent inhibition was calculated by the following formula. % Inhibition=(Conversionmax−Conversionsample)/(Conversionmax−Conversionmin)*100 • Conversionmax means the conversion rate in the positive well without addition of compound • Conversionmin means the conversion rate in the well without addition of enzyme • Conversionsample means the conversion rate of test compounds
The dose-response (percent inhibition) curve was plotted and IC50 values were determined by GraphPad software.

The structures appear in SMILES notation. Some results are limits rather than exact numbers.

What is called IC50 is the concentration needed to halve the response being measured. Read a high IC50 as weaker potency in that assay.

T1 sequence (O60674 whole entry V617F): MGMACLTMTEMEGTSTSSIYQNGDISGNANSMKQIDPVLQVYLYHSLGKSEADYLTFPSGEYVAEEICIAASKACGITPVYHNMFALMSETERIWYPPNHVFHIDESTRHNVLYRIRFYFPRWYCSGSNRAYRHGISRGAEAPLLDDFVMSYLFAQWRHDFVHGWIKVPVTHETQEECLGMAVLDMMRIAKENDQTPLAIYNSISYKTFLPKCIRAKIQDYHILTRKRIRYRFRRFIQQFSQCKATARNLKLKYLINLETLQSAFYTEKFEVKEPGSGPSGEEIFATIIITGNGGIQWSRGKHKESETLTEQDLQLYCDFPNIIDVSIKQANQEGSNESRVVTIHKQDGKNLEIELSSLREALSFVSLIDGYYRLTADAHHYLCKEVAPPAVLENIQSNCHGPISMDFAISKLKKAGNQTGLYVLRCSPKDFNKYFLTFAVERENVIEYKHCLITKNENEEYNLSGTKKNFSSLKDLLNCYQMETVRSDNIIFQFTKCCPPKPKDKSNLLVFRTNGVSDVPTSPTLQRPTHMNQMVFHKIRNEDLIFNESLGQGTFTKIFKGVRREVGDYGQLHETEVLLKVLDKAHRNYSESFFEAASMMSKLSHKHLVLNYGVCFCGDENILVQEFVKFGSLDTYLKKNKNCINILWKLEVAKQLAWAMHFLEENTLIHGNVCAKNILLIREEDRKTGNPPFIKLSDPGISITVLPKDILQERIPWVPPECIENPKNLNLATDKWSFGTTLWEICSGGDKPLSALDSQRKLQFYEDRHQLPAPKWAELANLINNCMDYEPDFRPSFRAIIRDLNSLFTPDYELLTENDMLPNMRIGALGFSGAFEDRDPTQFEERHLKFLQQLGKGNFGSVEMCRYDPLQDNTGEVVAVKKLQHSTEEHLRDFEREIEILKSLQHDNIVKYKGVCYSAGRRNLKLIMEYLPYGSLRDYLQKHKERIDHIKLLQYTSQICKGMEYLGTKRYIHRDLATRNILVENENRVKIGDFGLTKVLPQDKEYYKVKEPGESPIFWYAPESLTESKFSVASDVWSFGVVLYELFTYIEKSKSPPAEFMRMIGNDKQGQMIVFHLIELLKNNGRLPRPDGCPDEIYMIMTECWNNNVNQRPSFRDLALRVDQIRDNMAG

As for `Cc1cnc(Nc2cnn(CC#N)c2)nc1-c1ccc(C(=O)NCC#N)cc1` [Example 4, N-(Cyanomethyl)-4-(2-((1-(cyanomethyl)-1H-pyrazol-4-yl)amino)-5-methylpyrimidin-4-yl)benzamide], it took 109 nM to reach half-maximal inhibition on JAK2V617F (IC50). Besides, in series [1], the microsomal CLint at 1 μM amounted to 1.22 µL/min/mg.
As to `CNC(=O)c1ccc(-c2nc(Nc3cnn(C)c3)ncc2C)cc1` [Example 10, N-Methyl-4-(5-methyl-2-((1-methyl-1H-pyrazol-4-yl)amino)pyrimidin-4-yl)benzamide], the IC50 against JAK2V617F was above 5000 nM; on FLT3D835Y, 2040 nM.
With `Cn1cc(Nc2ncc(Cl)c(-c3ccc(C(=O)NCC#N)cc3)n2)cn1` [Example 34, 4-(5-Chloro-2-((1-methyl-1H-pyrazol-4-yl)amino)pyrimidin-4-yl)-N-(cyanomethyl)benzamide], at FLT3D835Y, half-maximal inhibition (IC50) required 15.5 nM. The microsomal CLint at 1 μM in series [1] is 12.3 µL/min/mg.
For `C[C@@H](C#N)NC(=O)c1ccc(-c2nc(Nc3cnn(C4CCN(C)CC4)c3)ncc2Cl)cc1` [Example 43, (S)-4-(5-Chloro-2-((1-(1-methylpiperidin-4-yl)-1H-pyrazol-4-yl)amino)pyrimidin-4-yl)-N-(1-cyanoethyl)benzamide], on JAK2V617F, the IC50 is 45.2 nM. Also, the microsomal CLint at 1 μM in series [1] was 15 µL/min/mg.
Regarding `CC[C@@H](C#N)NC(=O)c1ccc(-c2nc(Nc3cnn(C4CC4)c3)ncc2Cl)cc1` [Example 61, (S)-4-(5-chloro-2-((1-cyclopropyl-1H-pyrazol-4-yl)amino)pyrimidin-4-yl)-N-(1-cyanopropyl)benzamide], the IC50 against JAK2V617F stood at 34.8 nM; against FLT3D835Y it was 11.5 nM.
`N#CCNC(=O)c1ccc(-c2nc(Nc3cnn(C4CC4)c3)ncc2Cl)cc1` [Example 95, 4-(5-Chloro-2-((1-cyclopropyl-1H-pyrazol-4-yl)amino)pyrimidin-4-yl)-N-(cyanomethyl)benzamide] displayed a concentration for half-maximal inhibition (IC50) on JAK2V617F of 25.3 nM. Moreover, in series [1], the microsomal CLint at 1 μM is 8.84 µL/min/mg.
For the molecule `C[C@@H](C#N)NC(=O)c1ccc(-c2nc(Nc3cnn(C4CC4)c3)ncc2Cl)cc1` [Example 111, (S)-4-(5-Chloro-2-((1-cyclopropyl-1H-pyrazol-4-yl)amino)pyrimidin-4-yl)-N-(1-cyanoethyl)benzamide], the half-maximal inhibitory concentration (IC50) was found to be 31.4 nM on JAK2V617F and 11.9 nM on FLT3D835Y.
As for `Cc1cnc(Nc2cnn(C3CC(C)(C)OC(C)(C)C3)c2)nc1-c1ccc(C(=O)NCC#N)cc1` [Example 113, N-(cyanomethyl)-4-(5-methyl-2-((1-(2,2,6,6-tetramethyltetrahydro-2H-pyran-4-yl)-1H-pyrazol-4-yl)amino)pyrimidin-4-yl)benzamide], the microsomal CLint at 1 μM in series [1] came to 203 µL/min/mg.
On JAK2V617F, `Cc1cnc(Nc2cnn(C3CCN(C(=O)CO)CC3)c2)nc1-c1ccc(C(=O)N[C@@H](C)C#N)cc1` [Example 119, (S)—N-(1-cyanoethyl)-4-(2-((1-(1-(2-hydroxyacetyl)piperidin-4-yl)-1H-pyrazol-4-yl)amino)-5-methylpyrimidin-4-yl)benzamide] registered a concentration for half-maximal inhibition (IC50) of 0.96 nM.
As for `C[C@@H](C#N)NC(=O)c1ccc(-c2nc(Nc3cnn(C)c3)ncc2Cl)cc1` [Example 125, (S)-4-(5-chloro-2-((1-methyl-1H-pyrazol-4-yl)amino)pyrimidin-4-yl)-N-(1-cyanoethyl)benzamide], the half-inhibitory concentration (IC50) at FLT3D835Y was 43.8 nM. In addition, the microsomal CLint at 1 μM in series [1] worked out at 21.9 µL/min/mg.
In the case of `CC[C@@H](C#N)NC(=O)c1ccc(-c2nc(Nc3cnn(C4CCNCC4)c3)ncc2Cl)cc1` [Example 183, (S)-4-(5-chloro-2-((1-(piperidin-4-yl)-1H-pyrazol-4-yl)amino)pyrimidin-4-yl)-N-(1-cyanopropyl)benzamide], the microsomal CLint at 1 μM in series [1] is 12 µL/min/mg.
The same measure, in the same setting: the figure for `CC[C@@H](C#N)NC(=O)c1ccc(-c2nc(Nc3cnn(C4CCN(C)CC4)c3)ncc2C)cc1` [Example 184, (S)—N-(1-Cyanopropyl)-4-(5-methyl-2-((1-(1-methylpiperidin-4-yl)-1H-pyrazol-4-yl)amino)pyrimidin-4-yl)benzamide] is 11.4 µL/min/mg.
For the molecule `CCNC(=O)c1ccc(-c2nc(Nc3cnn(C)c3)ncc2C)cc1` [Example 222, N-ethyl-4-(5-methyl-2-((1-methyl-1H-pyrazol-4-yl)amino)pyrimidin-4-yl)benzamide], the values for the half-inhibitory concentration (IC50) at JAK2V617F and at FLT3D835Y were above 5000 nM and 4320 nM, respectively.
As to `Cc1cnc(Nc2cnn(C)c2)nc1-c1ccc(C(=O)NC(C)C)cc1` [Example 223, N-isopropyl-4-(5-methyl-2-((1-methyl-1H-pyrazol-4-yl)amino)pyrimidin-4-yl)benzamide], the IC50 was found to be 4540 nM against JAK2V617F and 2830 nM against FLT3D835Y.
